From patent US6545033B1, “Fused 1-(2,6-dichloro-4-trifluoromethylphenyl)-pyrazoles, the synthesis thereof and the use thereof as pesticides” (3-Dimensional Pharmaceuticals, Inc., priority 1999, dated 2003)

Assays:
Housefly GABA receptors = biological target: T1, Housefly GABA receptors (Musca domestica, UniProt Q75NA5); test: In vitro assay of binding to housefly GABA receptors (3H-EBOB displacement, housefly neuronal membranes); settings: for Compounds with the most activity (housefly 3H-EBOB binding): housefly neuronal membranes
T1 sequence (Q75NA5 30-576): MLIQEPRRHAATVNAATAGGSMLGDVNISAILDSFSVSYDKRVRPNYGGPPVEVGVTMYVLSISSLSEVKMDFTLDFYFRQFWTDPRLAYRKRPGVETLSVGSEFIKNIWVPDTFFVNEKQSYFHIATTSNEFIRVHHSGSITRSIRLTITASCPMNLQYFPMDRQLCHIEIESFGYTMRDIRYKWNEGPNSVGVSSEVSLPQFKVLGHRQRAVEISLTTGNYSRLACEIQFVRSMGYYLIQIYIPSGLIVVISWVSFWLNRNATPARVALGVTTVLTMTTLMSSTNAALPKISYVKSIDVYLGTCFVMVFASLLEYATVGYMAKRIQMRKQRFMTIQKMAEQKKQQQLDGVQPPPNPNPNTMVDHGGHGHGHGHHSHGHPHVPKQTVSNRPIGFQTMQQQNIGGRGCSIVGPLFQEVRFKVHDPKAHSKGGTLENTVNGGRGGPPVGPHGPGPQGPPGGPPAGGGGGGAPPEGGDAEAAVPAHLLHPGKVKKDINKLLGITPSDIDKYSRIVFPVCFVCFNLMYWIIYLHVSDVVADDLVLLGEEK
In short: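 Head neuronal membranes (20/35% sucrose interface) incubated 45 min at 24 °C in 10 mM phosphate, 300 mM NaCl, pH 7.5, with 3H-EBOB (added solution 5.2 nM) and membranes added at 0.5–1.0 mg/mL. Bound label captured on polyethylenimine-treated glass fibre filters and counted by scintillation.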

[1] = tested on: cat fleas (Ctenocephalides felis), CO Fleas; test: In vivo cat flea contact assay, CO fleas; settings: Ctenocephalides felis, topical; contact with treated filter disk in vial, about 24-30 hours; mM = concentration of the DMSO solution, about 1 μL applied; read-out: LD50 (mM), CO Fleas
In short: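 Compound in DMSO (0.05–100 mM stock), ~1 μL dried 24–48 h on GF/C disk in sealed glass vial; ~20 newly emerged fleas added after cold sedation, held in dark. Healthy, moribund and dead fleas counted after ~24–30 h; percent mortality corrected for DMSO-only control vials.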

In the case of FC(F)(F)c1cc(Cl)c(-n2cc3c(n2)CSC3)c(Cl)c1 [Compound 3, 2-[2,6-Dichloro-4-(trifluoromethyl)phenyl]-4,6-dihydrothieno-[3,4-c]pyrazole], the “Compounds with the most activity (housefly 3H-EBOB binding)” value (shortened to “Compounds with the most activity”) (Housefly GABA receptors) is reported as “most activity” and the LC50 [1] is reported as 1.7 mM.

For FC(F)(F)c1cc(Cl)c(-n2cc3c(n2)CCC3)c(Cl)c1 [Compound 11, 2-[2,6-Dichloro-4-(trifluoromethyl)phenyl]-2,4,5,6-tetrahydrocyclopenta[c]pyrazole], the IC50 (Housefly GABA receptors; displacement of 5.2 nM 3H-EBOB, housefly head neuronal membranes, about 45 min at about 24° C., read-out: IC50 (nM), Fly Head) was 83 nM, the “Compounds with the most activity” value (Housefly GABA receptors) was “most activity” and the LC50 [1] was 8 mM.

For FC(F)(F)c1cc(Cl)c(-n2cc3c(n2)CCCCC3)c(Cl)c1 [Compound 15, 2-[2,6-Dichloro-4-(trifluoromethyl)phenyl]-2,4,5,6,7,8-hexahydrocyclohepta[c]pyrazole], the “Compounds with the most activity” value (Housefly GABA receptors) was “most activity” and the LC50 [1] was 29.5 mM.
